Laboratory results as given in ChEMBL document CHEMBL6092206, “Discovery and Characterization of BAY-184: A New Potent and Selective Acylsulfonamide-Benzofuran In Vivo-Active KAT6AB Inhibitor” (J Med Chem, 2024).
The source made the active and inactive calls. The calls are words filed in the database; no cut-off is given here.

Tests used:
[1] = target: Histone acetyltransferase KAT5 (Homo sapiens, UniProt Q92993); test: Inhibition of full length N-terminal GST-tagged human recombinant KAT5 expressed in Sf9 insect cells using H4-derived peptide as substrate incubated for 30 mins in presence of AcCoA by TR-FRET assay
Histone acetyltransferase KAT5, sequence (Q92993 whole entry): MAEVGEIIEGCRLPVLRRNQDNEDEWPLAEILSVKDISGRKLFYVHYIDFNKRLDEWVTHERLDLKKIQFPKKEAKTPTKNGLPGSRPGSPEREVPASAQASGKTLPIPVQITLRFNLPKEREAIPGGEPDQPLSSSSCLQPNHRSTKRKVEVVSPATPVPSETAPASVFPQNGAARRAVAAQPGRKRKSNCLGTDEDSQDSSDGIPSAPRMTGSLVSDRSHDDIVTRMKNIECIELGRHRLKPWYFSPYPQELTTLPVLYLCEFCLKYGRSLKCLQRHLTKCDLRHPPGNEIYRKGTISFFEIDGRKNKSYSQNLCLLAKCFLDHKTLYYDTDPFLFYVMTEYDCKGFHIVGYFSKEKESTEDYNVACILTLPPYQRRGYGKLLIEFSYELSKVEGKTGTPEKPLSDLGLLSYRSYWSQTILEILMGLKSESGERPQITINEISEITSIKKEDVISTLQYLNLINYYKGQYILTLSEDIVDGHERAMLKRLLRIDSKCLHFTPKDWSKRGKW

CAMA-1 = test: Antiproliferative activity against human CAMA-1 cells assessed as inhibition of cell growth incubated for 6 days by alamar blue staining based assay relative to control; format: functional; conditions: time 6 day
[2] = Metabolic stability in mouse liver microsome assessed as clearance measured for 2 to 60 mins by LC-MS/MS analysis; format: ADME; conditions: microsomes, time 2-60 min
[3] = target: Histone acetyltransferase KAT7 (Homo sapiens, UniProt O95251); test: Inhibition of full length N-terminal GST-tagged human recombinant KAT7 expressed in Sf9 insect cells using H4-derived peptide as substrate incubated for 30 mins in presence of AcCoA by TR-FRET assay
Histone acetyltransferase KAT7, sequence (O95251 whole entry): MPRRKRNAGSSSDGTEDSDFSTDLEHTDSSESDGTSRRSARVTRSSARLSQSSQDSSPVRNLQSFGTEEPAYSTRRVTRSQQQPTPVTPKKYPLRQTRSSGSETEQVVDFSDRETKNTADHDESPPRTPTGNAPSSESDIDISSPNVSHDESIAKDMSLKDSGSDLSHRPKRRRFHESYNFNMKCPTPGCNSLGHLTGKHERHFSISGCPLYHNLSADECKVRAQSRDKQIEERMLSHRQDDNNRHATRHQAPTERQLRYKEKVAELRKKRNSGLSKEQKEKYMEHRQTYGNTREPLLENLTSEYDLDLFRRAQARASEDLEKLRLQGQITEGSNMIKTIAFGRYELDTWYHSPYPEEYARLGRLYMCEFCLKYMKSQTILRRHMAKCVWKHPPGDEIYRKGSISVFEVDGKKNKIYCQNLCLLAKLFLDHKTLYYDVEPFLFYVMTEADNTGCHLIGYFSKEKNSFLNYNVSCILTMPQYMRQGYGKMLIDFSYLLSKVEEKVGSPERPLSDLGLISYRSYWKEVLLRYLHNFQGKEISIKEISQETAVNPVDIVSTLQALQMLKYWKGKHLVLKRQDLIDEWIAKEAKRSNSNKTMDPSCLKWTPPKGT

[4] = Half life in male Wistar rat at 0.5 mg/kg, iv measured upto 24 hrs by LC-MS/S analysis; format: ADME, organism-based; conditions: in vivo
BT-549 = test: Antiproliferative activity against human BT-549 cells assessed as inhibition of cell growth incubated for 6 days by alamar blue staining based assay relative to control; format: functional; conditions: time 6 day
[5] = target: Voltage-gated inwardly rectifying potassium channel KCNH2 (Homo sapiens, UniProt Q12809); test: Inhibition of hERG; format: toxicity
Voltage-gated inwardly rectifying potassium channel KCNH2, sequence (Q12809 whole entry): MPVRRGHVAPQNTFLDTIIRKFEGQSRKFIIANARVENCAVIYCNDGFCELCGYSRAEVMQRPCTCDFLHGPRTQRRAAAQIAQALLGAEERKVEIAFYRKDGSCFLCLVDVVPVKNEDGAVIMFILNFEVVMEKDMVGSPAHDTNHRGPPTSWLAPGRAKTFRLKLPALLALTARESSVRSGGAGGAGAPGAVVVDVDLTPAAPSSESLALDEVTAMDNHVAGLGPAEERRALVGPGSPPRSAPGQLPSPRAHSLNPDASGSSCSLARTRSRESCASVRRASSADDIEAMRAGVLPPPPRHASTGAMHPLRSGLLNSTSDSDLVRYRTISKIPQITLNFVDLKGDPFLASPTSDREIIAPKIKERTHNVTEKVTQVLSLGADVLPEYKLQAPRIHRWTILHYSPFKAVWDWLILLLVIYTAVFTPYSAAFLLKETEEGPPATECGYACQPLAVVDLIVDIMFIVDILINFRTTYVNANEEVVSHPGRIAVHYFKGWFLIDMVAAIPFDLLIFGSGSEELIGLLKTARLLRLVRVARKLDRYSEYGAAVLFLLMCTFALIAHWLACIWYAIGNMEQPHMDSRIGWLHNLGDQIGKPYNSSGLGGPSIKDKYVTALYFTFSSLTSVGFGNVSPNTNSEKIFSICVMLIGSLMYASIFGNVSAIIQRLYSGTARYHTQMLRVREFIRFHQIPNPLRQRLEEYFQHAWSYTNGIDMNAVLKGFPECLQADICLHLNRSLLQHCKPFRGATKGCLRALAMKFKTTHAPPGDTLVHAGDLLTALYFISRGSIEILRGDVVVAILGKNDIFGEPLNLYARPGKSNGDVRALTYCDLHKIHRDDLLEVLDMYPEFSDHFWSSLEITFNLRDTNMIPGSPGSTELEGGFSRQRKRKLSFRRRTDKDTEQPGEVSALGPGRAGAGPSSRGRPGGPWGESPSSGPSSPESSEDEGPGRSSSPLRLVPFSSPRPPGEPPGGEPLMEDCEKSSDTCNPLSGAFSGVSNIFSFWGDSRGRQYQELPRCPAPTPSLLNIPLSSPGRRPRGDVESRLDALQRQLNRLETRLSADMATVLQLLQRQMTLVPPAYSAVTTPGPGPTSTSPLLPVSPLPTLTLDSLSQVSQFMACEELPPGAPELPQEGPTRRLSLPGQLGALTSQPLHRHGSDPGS

[6] = Plasma protein binding in mouse assessed as unbound fraction equilibrium dialysis based LC-MS/MS analysis; format: ADME, cell-free
ZR-75-1 [7] = test: Antitumor activity against human ZR-75-1 cells xenografted in female estradiol-primed NMRI mouse assessed as reduction in H3K23 acetylation level in tumor at 100 mg/kg, po administered twice daily measured after 24 hrs by immunohistochemical analysis; format: functional, organism-based
[8] = Plasma protein binding in human assessed as unbound fraction equilibrium dialysis based LC-MS/MS analysis; format: ADME, cell-free
HaCaT = test: Cytotoxicity against human HaCaT cells incubated for 72 hrs; format: toxicity, cell-based
[9] = Antiproliferative activity against human HCC1500 cells assessed as inhibition of cell growth incubated for 6 days by alamar blue staining based assay relative to control; format: functional; conditions: time 6 day
[10] = AUC in male Wistar rat at 1 mg/kg, po measured upto 24 hrs by LC-MS/S analysis; format: ADME, organism-based; conditions: in vivo
[11] = Metabolic stability in human hepatocyte assessed as clearance measured for 2 to 90 mins by LC-MS/MS analysis; format: ADME, cell-based; conditions: hepatocytes, time 2-90 min
[12] = AUC in male Wistar rat at 0.5 mg/kg, iv measured upto 24 hrs by LC-MS/S analysis; format: ADME, organism-based; conditions: in vivo
[13] = Metabolic stability in rat hepatocyte assessed as maximum bioavailability of the drug measured for 2 to 90 mins by LC-MS/MS analysis; format: ADME; conditions: hepatocytes, time 2-90 min, read-out: Fmax
[14] = Apparent permeability across apical to basolateral side in human Caco-2 cells at 2 uM pH 7.2 measured for 2 hrs by LC-MS/MS analysis; format: ADME, cell-based; conditions: caco-2, pH 7.2, 2 h, 2 µM
[15] = Metabolic stability in human liver microsome assessed as maximum bioavailability of the drug measured for 2 to 60 mins by LC-MS/MS analysis; format: ADME; conditions: liver microsomes, time 2-60 min, read-out: Fmax
[16] = Clearance in male Wistar rat at 0.5 mg/kg, iv or 1 mg/kg, po measured upto 24 hrs by LC-MS/S analysis; format: ADME, organism-based; conditions: in vivo
[17] = Half life in mouse at 0.5 mg/kg, iv; format: ADME, organism-based; conditions: in vivo
MDA-MB-231 = test: Antiproliferative activity against human MDA-MB-231 cells assessed as inhibition of cell growth incubated for 6 days by alamar blue staining based assay relative to control; format: functional; conditions: time 6 day
MDA-MB-361 = test: Antiproliferative activity against human MDA-MB-361 cells assessed as inhibition of cell growth incubated for 6 days by alamar blue staining based assay relative to control; format: functional; conditions: time 6 day
[18] = Metabolic stability in dog hepatocyte assessed as maximum bioavailability of the drug measured for 2 to 90 mins by LC-MS/MS analysis; format: ADME, Canis lupus familiaris; conditions: hepatocytes, time 2-90 min, read-out: Fmax
MFM-223 = test: Antiproliferative activity against human MFM-223 cells assessed as inhibition of cell growth incubated for 6 days by alamar blue staining based assay relative to control; format: functional; conditions: time 6 day
[19] = Metabolic stability in mouse hepatocyte assessed as maximum bioavailability of the drug measured for 2 to 90 mins by LC-MS/MS analysis; format: ADME; conditions: hepatocytes, time 2-90 min, read-out: Fmax
[20] = Mutagenicity in Escherichia coli WP2 uvrA by Ames test; format: toxicity
ZR-75-1 [21] = test: Antitumor activity against human ZR-75-1 cells xenografted in po dosed female estradiol-primed NMRI mouse assessed as inhibition of tumor growth administered twice daily measured at 2 to 3 days; format: functional, organism-based; conditions: time 2-3 day
[22] = Stability of compound in borate buffer at pH 10 measured for 24 hrs by HPLC analysis; format: physicochemical; conditions: pH 10, 24 h

IC50 [1]: 14.3 µM | CLH [2]: 63.3 mL/min/kg | IC50 [3]: 1.07 µM | t1/2 [4]: 0.94 h | Fu [6]: 0.31% | Fu [8]: 0.042% | AUC [10]: 3.3 kg·h/L | CLH [11]: 16.5 mL/min/kg | AUC [12]: 5.5 kg·h/L | Fh [13]: 42% | Papp [14]: 14.6 ×10⁻⁶ cm/s | Fh [15]: 41% | clearance [16]: 5.67 mL/min/kg | half-life [17]: 1.3 h | Fh [18]: 53% | Fh [19]: 33% | Stability [22]: Stable
SMILES: CN(C)c1ccc2cc(C(=O)NS(=O)(=O)c3ccccc3-c3ccccc3)oc2c1
inhibition (INH) (CAMA-1): 68% | inhibition (INH) (BT-549): 0% | inhibition (INH) [5]: Not_active | Activity (ZR-75-1 [7]): Active | Activity (HaCaT): Non-toxic | inhibition (INH) [9]: 49% | inhibition (INH) (MDA-MB-231): 0% | inhibition (INH) (MDA-MB-361): 22% | inhibition (INH) (MFM-223): 61% | Activity [20]: Non-toxic | Activity (ZR-75-1 [21]): Dose-dependent-effect
